Our source for the Ki values is article PMC4669411 (FEBS Open Bio, 2015).

The target in test [1] is T1, PputG6PDH-1 (Pseudomonas putida, UniProt Q88P31).
T1 sequence (Q88P31 1-489): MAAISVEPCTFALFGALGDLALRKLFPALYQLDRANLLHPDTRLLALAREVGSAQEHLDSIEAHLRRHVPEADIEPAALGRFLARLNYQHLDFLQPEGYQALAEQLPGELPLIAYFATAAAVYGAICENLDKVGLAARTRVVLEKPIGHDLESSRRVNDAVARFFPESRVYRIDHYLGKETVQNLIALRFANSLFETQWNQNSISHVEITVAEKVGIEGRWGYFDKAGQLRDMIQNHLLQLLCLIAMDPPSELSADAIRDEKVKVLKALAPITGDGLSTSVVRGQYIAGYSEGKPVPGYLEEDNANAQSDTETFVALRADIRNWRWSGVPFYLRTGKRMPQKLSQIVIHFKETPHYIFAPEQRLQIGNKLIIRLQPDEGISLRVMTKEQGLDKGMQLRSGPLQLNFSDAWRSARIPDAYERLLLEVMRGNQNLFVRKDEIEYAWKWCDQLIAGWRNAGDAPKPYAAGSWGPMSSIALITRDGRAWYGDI
In words: initial rates, NAD. It is filed as biochemical.

In test [2] the target is T1, PputG6PDH-1. In words: progress curves at […] nm, product inhibition, global fit. Type of test: biochemical.

`NC(=O)C1=CN([C@@H]2O[C@H](COP(=O)(O)OP(=O)(O)OC[C@H]3O[C@@H](n4cnc5c(N)ncnc54)[C@H](OP(=O)(O)O)[C@@H]3O)[C@@H](O)[C@H]2O)C=CC1` [NADPH] returned a Ki in test [1] of 18 ± 3 µM.
The compound `NC(=O)C1=CN([C@@H]2O[C@H](COP(=O)(O)OP(=O)(O)OC[C@H]3O[C@@H](n4cnc5c(N)ncnc54)[C@H](O)[C@@H]3O)[C@@H](O)[C@H]2O)C=CC1` [NADH] registered a Ki in test [2] of 480 ± 7 µM.

For orientation: Ki means the dissociation constant of the complex between target and ligand, obtained from inhibition or displacement. Low values mean higher affinity, high ones lower affinity.
